# Test results reported in article PMC13351859 (Biophysical Journal, 2026).
# Target: T1, LASV FD (Lassa virus fusion domain, G260-N295) (Lassa virus Josiah, UniProt P08669)
# T1 construct: gene GPC
# Test: biochemical
# Format: binding
# T1 sequence (P08669 260-295 limits assumed): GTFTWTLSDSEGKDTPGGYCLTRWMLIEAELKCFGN
compound,measurement,value
"CCCCCCCC/C=C\CCCCCCCC(=O)O[C@H](COC(=O)CCCCCCCCCCCCCCC)COP(=O)([O-])OCC[N+](C)(C)C [POPC, 1-palmitoyl-2-oleoyl-glycero-3-phosphocholine]",Kd,657 ± 17 µM
